pIC50: −log10 of the molar value. Where a SMILES comes first, the peptide text is derived from it. Bridges are numbered along the chain shown (N, C = ends). [ ]: non-standard residue; d: D form. The star is where a group is joined. NH(2-(3-pyridyl)ethyl) = c1cncc(CCN*)c1; 2Nal = N[C@@H](Cc1ccc2ccccc2c1)C(=O)O; AEF = NCCOc1ccc(C[C@H](N)C(=O)O)cc1; 3Pal = N[C@@H](Cc1cccnc1)C(=O)O; β3hE = N[C@@H](CCC(=O)O)CC(=O)O; αMeL = CC(C)C[C@](C)(N)C(=O)O; Dab = NCC[C@H](N)C(=O)O
Molecular target: T1, human IL-23R (Homo sapiens, UniProt Q5VWK5)
T1 sequence (Q5VWK5 22-629): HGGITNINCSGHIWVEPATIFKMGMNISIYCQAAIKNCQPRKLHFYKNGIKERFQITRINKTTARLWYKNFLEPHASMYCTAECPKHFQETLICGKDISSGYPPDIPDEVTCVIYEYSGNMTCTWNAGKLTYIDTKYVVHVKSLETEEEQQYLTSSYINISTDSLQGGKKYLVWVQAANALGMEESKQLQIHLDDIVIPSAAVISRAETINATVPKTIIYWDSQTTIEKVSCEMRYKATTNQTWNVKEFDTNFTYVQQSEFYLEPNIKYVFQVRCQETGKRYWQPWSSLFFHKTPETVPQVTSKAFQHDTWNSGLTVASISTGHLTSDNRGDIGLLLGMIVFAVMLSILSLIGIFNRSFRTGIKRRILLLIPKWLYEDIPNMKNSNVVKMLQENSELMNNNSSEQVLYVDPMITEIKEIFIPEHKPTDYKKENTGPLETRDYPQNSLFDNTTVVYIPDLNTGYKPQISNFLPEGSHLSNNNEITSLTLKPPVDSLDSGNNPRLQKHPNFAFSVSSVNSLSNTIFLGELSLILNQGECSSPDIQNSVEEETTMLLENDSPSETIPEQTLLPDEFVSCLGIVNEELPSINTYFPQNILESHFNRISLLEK
Assay: biochemical
Conditions: for Emax: read-out: % displacement (hIL-23R NIuc)
How it was run: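 BRET displacement of a TAMRA-labelled reference compound from N-terminal Nanoluc-IL-23R fusion protein in membranes from stably transfected HEK293 cells. Incubation 2 h at room temperature, then Nanoluc substrate was added and the TAMRA/Nanoluc ratio read. IC50 and maximal displacement came from 4-parameter logistic fits.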

pIC50 | Emax [%] | % displacement (hIL-23R NIuc) [%] | SMILES
6.92 | 101 |  | COc1ccc(C[C@@H]2NC(=O)[C@@H]3CCC(=O)N[C@@H](CCCCNC(=O)CC[C@@H](C(=O)N[C@@H](CCCCNC(=O)CCc4cccnc4)C(N)=O)NC(=O)[C@](C)(CC(C)C)NC(=O)[C@H](Cc4ccc5ccccc5c4)NC2=O)C(=O)N[C@@H]([C@@H](C)O)C(=O)N[C@@H](C(C)C)C(=O)N[C@@H](Cc2c[nH]c4ccccc24)C(=O)N[C@@H](CCC(N)=O)C(=O)N3)cc1 [Compound 52, K(1c)(6c)^†TVWQE(6c)[Y(Me)][2-Nal][2-Me-Leu]E(1c)[K(3-pyridylpropionyl)]-[NH2]]
6.38 | 95 |  | COc1ccc(C[C@@H]2NC(=O)[C@@H]3CCC(=O)N[C@@H](CCCCNC(=O)CC[C@@H](C(=O)N[C@@H](CCCCNC(=O)c4ccncc4)C(N)=O)NC(=O)[C@](C)(CC(C)C)NC(=O)[C@H](Cc4ccc5ccccc5c4)NC2=O)C(=O)N[C@@H]([C@@H](C)O)C(=O)N[C@@H](C(C)C)C(=O)N[C@@H](Cc2c[nH]c4ccccc24)C(=O)N[C@@H](CCC(N)=O)C(=O)N3)cc1 [Compound 53, K(1c)(6c)^†TVWQE(6c)[Y(Me)][2-Nal][2-Me-Leu]E(1c)[K(isonicotinyl)]-[NH2]]
6.54 | 105 |  | COc1ccc(C[C@@H]2NC(=O)[C@@H]3CCC(=O)N[C@@H](CCCCNC(=O)CC[C@@H](C(=O)N[C@@H](CCCCNC(=O)Cc4ccncc4)C(N)=O)NC(=O)[C@](C)(CC(C)C)NC(=O)[C@H](Cc4ccc5ccccc5c4)NC2=O)C(=O)N[C@@H]([C@@H](C)O)C(=O)N[C@@H](C(C)C)C(=O)N[C@@H](Cc2c[nH]c4ccccc24)C(=O)N[C@@H](CCC(N)=O)C(=O)N3)cc1 [Compound 54, K(1c)(6c)^†TVWQE(6c)[Y(Me)][2-Nal][2-Me-Leu]E(1c)[K(4-pyridylacetyl)]-[NH2]]
6.85 | 100 |  | COc1ccc(C[C@@H]2NC(=O)[C@@H]3CCC(=O)N[C@@H](CCCCNC(=O)CC[C@@H](C(=O)N[C@@H](CCCCNC(=O)CCc4ccncc4)C(N)=O)NC(=O)[C@](C)(CC(C)C)NC(=O)[C@H](Cc4ccc5ccccc5c4)NC2=O)C(=O)N[C@@H]([C@@H](C)O)C(=O)N[C@@H](C(C)C)C(=O)N[C@@H](Cc2c[nH]c4ccccc24)C(=O)N[C@@H](CCC(N)=O)C(=O)N3)cc1 [Compound 55, K(1c)(6c)^†TVWQE(6c)[Y(Me)][2-Nal][2-Me-Leu]E(1c)[K(4-pyridylpropionyl)]-[NH2]]
6.68 | 98 |  | COc1ccc(C[C@@H]2NC(=O)[C@@H]3CCC(=O)N[C@@H](CCCCNC(=O)CC[C@@H](C(=O)N[C@@H](CCCCNC(=O)c4cncnc4)C(N)=O)NC(=O)[C@](C)(CC(C)C)NC(=O)[C@H](Cc4ccc5ccccc5c4)NC2=O)C(=O)N[C@@H]([C@@H](C)O)C(=O)N[C@@H](C(C)C)C(=O)N[C@@H](Cc2c[nH]c4ccccc24)C(=O)N[C@@H](CCC(N)=O)C(=O)N3)cc1 [Compound 56, K(1c)(6c)^†TVWQE(6c)[Y(Me)][2-Nal][2-Me-Leu]E(1c)[K(3,5-pyrimidine)]-[NH2]]
6.10 | 93 |  | COc1ccc(C[C@@H]2NC(=O)[C@@H]3CCC(=O)N[C@@H](CCCCNC(=O)CC[C@@H](C(=O)N[C@@H](CCCCNC(=O)Cc4ccnc(F)c4)C(N)=O)NC(=O)[C@](C)(CC(C)C)NC(=O)[C@H](Cc4ccc5ccccc5c4)NC2=O)C(=O)N[C@@H]([C@@H](C)O)C(=O)N[C@@H](C(C)C)C(=O)N[C@@H](Cc2c[nH]c4ccccc24)C(=O)N[C@@H](CCC(N)=O)C(=O)N3)cc1 [Compound 57, K(1c)(6c)^†TVWQE(6c)[Y(Me)][2-Nal][2-Me-Leu]E(1c)[K(4-pyridyl-3-fluoroacetyl)]-[NH2]]
6.26 |  |  | COc1ccc(C[C@@H]2NC(=O)[C@@H]3CCC(=O)N[C@@H](CCCCNC(=O)CC[C@@H](C(=O)N[C@@H](CCCCNC(=O)Cc4ncc[nH]4)C(N)=O)NC(=O)[C@](C)(CC(C)C)NC(=O)[C@H](Cc4ccc5ccccc5c4)NC2=O)C(=O)N[C@@H]([C@@H](C)O)C(=O)N[C@@H](C(C)C)C(=O)N[C@@H](Cc2c[nH]c4ccccc24)C(=O)N[C@@H](CCC(N)=O)C(=O)N3)cc1 [Compound 58, K(1c)(6c)^†TVWQE(6c)[Y(Me)][2-Nal][2-Me-Leu]E(1c)[K(Imidazoleacetyl)]-[NH2]]
6.48 |  |  | COc1ccc(C[C@@H]2NC(=O)[C@@H]3CCC(=O)N[C@@H](CCCCNC(=O)CC[C@@H](C(=O)N[C@@H](CCCCNC(=O)CCc4ncc[nH]4)C(N)=O)NC(=O)[C@](C)(CC(C)C)NC(=O)[C@H](Cc4ccc5ccccc5c4)NC2=O)C(=O)N[C@@H]([C@@H](C)O)C(=O)N[C@@H](C(C)C)C(=O)N[C@@H](Cc2c[nH]c4ccccc24)C(=O)N[C@@H](CCC(N)=O)C(=O)N3)cc1 [Compound 59, K(1c)(6c)^†TVWQE(6c)[Y(Me)][2-Nal][2-Me-Leu]E(1c)[K(Imidazolepropanoyl)]-[NH2]]
7.96 | 99 |  | CC[C@H](C)[C@@H]1NC(=O)[C@@H]2CCCCNC(=O)CC[C@@H](CC(=O)N[C@@H](Cc3cccnc3)C(=O)NC)NC(=O)[C@](C)(CC(C)C)NC(=O)[C@H](Cc3ccc4ccccc4c3)NC(=O)[C@H](Cc3ccc(OCCN)cc3)NC(=O)[C@H](CCC(=O)N2)NC(=O)[C@H](CCC(N)=O)NC(=O)[C@H](Cc2c[nH]c3ccccc23)NC(=O)[C@H](C(C)C)NC1=O [Compound 61, K(1c)(6c)^†IVWQE(6c)[Y(2-aminoethoxy)][2-Nal][2-Me-Leu][beta-hGlu](cyclo1)[3-(3-Pyridyl)-Ala]-[NHMe]] (KIVWQE[AEF][2Nal][αMeL][β3hE][3Pal]-NHMe; lactam 1-10, N-6)
6.82 |  | 98 | CC[C@H](C)[C@@H]1NC(=O)[C@@H]2CCCCNC(=O)CC[C@@H](C(=O)N3CCC[C@H]3C(=O)N[C@@H](Cc3cccnc3)C(=O)NC)NC(=O)[C@](C)(CC(C)C)NC(=O)[C@H](Cc3ccc4ccccc4c3)NC(=O)[C@H](Cc3ccc(OCCN)cc3)NC(=O)[C@H](CCC(=O)N2)NC(=O)[C@H](CCC(N)=O)NC(=O)[C@H](Cc2c[nH]c3ccccc23)NC(=O)[C@H](C(C)C)NC1=O [Compound 63, K(1c)(6c)^†IVWQE(6c)[Y(2-aminoethoxy)][2-Nal][2-Me-Leu]E(1c)P[3-(3-Pyridyl)-Ala]-[NHMe]] (KIVWQE[AEF][2Nal][αMeL]EP[3Pal]-NHMe; lactam 1-10, N-6)
6.85 | 99 |  | CC[C@H](C)[C@@H]1NC(=O)[C@@H]2CCCCNC(=O)CC[C@@H](CC(=O)NCCc3cccnc3)NC(=O)[C@](C)(CC(C)C)NC(=O)[C@H](Cc3ccc4ccccc4c3)NC(=O)[C@H](Cc3ccc(OCCN)cc3)NC(=O)[C@H](CCC(=O)N2)NC(=O)[C@H](CCC(N)=O)NC(=O)[C@H](Cc2c[nH]c3ccccc23)NC(=O)[C@H](C(C)C)NC1=O [Compound 65, K(1c)(6c)^†IVWQE(6c)[Y(2-aminoethoxy)][2-Nal][2-Me-Leu][beta-hGlu](1c)-[NH-2-(pyridin-3-yl)ethyl]] (KIVWQE[AEF][2Nal][αMeL][β3hE]-{NH(2-(3-pyridyl)ethyl)}; lactam 1-10, N-6)
8.59 | 102 |  | CC[C@H](C)[C@@H]1NC(=O)[C@@H]2CCCCNC(=O)CC[C@@H](C(=O)N[C@@H](CCN)C(=O)NCCCc3cccnc3)NC(=O)[C@](C)(CC(C)C)NC(=O)[C@H](Cc3ccc4ccccc4c3)NC(=O)[C@H](Cc3ccc(OCCN)cc3)NC(=O)[C@H](CCC(=O)N2)NC(=O)[C@H](CCC(N)=O)NC(=O)[C@H](Cc2c[nH]c3ccccc23)NC(=O)[C@H](C(C)C)NC1=O [Compound 67, K(1c)(6c)^†IVWQE(6c)[Y(2-aminoethoxy)][2-Nal][2-Me-Leu]E(1c)[Dab]-[NH-3-(pyridin-3-yl)propyl]]
8.43 | 92 |  | CC(C)[C@@H]1NC(=O)[C@H]([C@@H](C)O)NC(=O)[C@@H]2CCCCNC(=O)CC[C@@H]3NC(=O)[C@H](CCNC(=O)[C@H](Cc4cccnc4)NC(=O)[C@H](CCN)NC3=O)NC(=O)[C@H](Cc3ccc4ccccc4c3)NC(=O)[C@H](Cc3ccc(OCCN)cc3)NC(=O)[C@H](CCC(=O)N2)NC(=O)[C@H](CCC(N)=O)NC(=O)[C@H](Cc2c[nH]c3ccccc23)NC1=O [Compound 76, K(1c)(6c)^†TVWQE(6c)[Y(2-aminoethoxy)][2-Nal][Dab](7c)E(1c)[Dab][3-(3-Pyridyl)-Ala](7c)^‡] (KTVWQE[AEF][2Nal][Dab]E[Dab][3Pal]; lactam 1-10, 9-C, N-6)
8.00 | 97 |  | CC(C)[C@@H]1NC(=O)[C@H]([C@@H](C)O)NC(=O)[C@@H]2CCCCNC(=O)CC[C@@H]3NC(=O)[C@H](CCCCNC(=O)[C@H](Cc4cccnc4)NC(=O)[C@H](CCN)NC3=O)NC(=O)[C@H](Cc3ccc4ccccc4c3)NC(=O)[C@H](Cc3ccc(OCCN)cc3)NC(=O)[C@H](CCC(=O)N2)NC(=O)[C@H](CCC(N)=O)NC(=O)[C@H](Cc2c[nH]c3ccccc23)NC1=O [Compound 77, K(1c)(6c)^†TVWQE(6c)[Y(2-aminoethoxy)][2-Nal]K(7c)E(1c)[Dab][3-(3-Pyridyl)-Ala](7c)^‡]
